The values that follow come from patent publication US10167272B2, “Muscarinic agonists” (Heptares Therapeutics Limited, priority 2015, dated 2019).

Where two headings read alike, the source gives them in different places.

Assay type in all cases: cell-based
The target in assay [1] is T1, human muscarinic M4 receptor (Homo sapiens, UniProt P08173).
T1 construct: expressed in transfected cells
T1 sequence (P08173 1-479): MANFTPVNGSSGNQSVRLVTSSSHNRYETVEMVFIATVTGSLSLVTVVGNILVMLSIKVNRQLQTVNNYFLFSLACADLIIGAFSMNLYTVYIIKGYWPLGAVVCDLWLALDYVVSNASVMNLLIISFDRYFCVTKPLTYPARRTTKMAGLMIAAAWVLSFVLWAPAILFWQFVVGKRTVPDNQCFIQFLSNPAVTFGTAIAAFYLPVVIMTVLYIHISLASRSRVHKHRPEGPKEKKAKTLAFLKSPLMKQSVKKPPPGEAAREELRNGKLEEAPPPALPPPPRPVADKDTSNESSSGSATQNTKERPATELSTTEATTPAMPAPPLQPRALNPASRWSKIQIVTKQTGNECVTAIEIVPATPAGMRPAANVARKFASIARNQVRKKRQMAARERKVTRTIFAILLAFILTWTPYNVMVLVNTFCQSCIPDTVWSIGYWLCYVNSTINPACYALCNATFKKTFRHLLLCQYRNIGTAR
Briefly: Alphascreen Surefire phospho-ERK1/2 functional assay, M4. The settings on record: for Emax: CHO, read-out: % Emax cf. ACh (M4), CHO cells stably expressing human M4.

For assay [2], the target named is T2, human muscarinic M1 receptor (Homo sapiens, UniProt P11229).
T2 sequence (P11229 1-460): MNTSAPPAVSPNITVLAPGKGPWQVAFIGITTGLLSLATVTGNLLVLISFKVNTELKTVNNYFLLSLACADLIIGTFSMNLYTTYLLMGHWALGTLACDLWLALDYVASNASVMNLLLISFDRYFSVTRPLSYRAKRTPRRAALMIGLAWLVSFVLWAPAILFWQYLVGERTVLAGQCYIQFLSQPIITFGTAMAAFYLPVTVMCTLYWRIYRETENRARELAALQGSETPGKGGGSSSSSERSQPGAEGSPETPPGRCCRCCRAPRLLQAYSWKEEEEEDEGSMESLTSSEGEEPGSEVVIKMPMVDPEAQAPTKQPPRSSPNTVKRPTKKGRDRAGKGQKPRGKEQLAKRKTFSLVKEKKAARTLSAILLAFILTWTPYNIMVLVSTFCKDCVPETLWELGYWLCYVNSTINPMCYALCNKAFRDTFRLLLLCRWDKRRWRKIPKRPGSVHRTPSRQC
Briefly: Alphascreen Surefire phospho-ERK1/2 functional assay, M1. Particulars: phospho-ERK1/2; for EC50: read-out: pEC50 M1 (converted); for Emax: CHO, read-out: % Emax cf. ACh (M1), CHO cells stably expressing human M1. An outline of the steps: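 CHO cells stably expressing human M1, M2 or M3 receptor, serum-starved overnight, were stimulated with agonist for 5 min at 37 °C. Cells were then lysed and ERK1/2 phosphorylation detected by AlphaScreen SureFire.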
Background: Bead proximity is the source of the signal in Alpha formats.

Assay [3] concerns the target T3, human muscarinic M3 receptor (Homo sapiens, UniProt P20309).
T3 construct: expressed in transfected cells
Briefly: Alphascreen Surefire phospho-ERK1/2 functional assay, M3. Particulars: phospho-ERK1/2; for EC50: CHO cells stably expressing human M3, read-out: pEC50 M3 (converted); for Emax: CHO, read-out: % Emax cf. ACh (M3), CHO cells stably expressing human M3, relative to ACh. As to the method: (§1) ERK1/2 phosphorylation is a downstream consequence of both Gq/11 and Gi/o protein coupled receptor activation, making it highly suitable for the assessment of M1, M3 (Gq/11 coupled) and M2, M4 receptors (Gi/o coupled), rather than using different assay formats for different receptor subtypes. CHO cells stably expressing the human muscarinic M1, M2, M3 or M4 receptor were plated (25K/well) onto 96-well tissue culture plates in MEM-alpha+10% dialysed FBS. Once adhered, cells were serum-starved overnight. Agonist stimulation was performed by the addition of 5 μL agonist to the cells for 5 min (37° C.). Media was removed and 50 μL of lysis buffer added. After 15 min, a 4 μL sample was transferred to 384-well plate and 7 μL of detection mixture added.

The target in assay [4] is T4, human muscarinic M2 receptor (Homo sapiens, UniProt P08172).
T4 sequence (P08172 1-466): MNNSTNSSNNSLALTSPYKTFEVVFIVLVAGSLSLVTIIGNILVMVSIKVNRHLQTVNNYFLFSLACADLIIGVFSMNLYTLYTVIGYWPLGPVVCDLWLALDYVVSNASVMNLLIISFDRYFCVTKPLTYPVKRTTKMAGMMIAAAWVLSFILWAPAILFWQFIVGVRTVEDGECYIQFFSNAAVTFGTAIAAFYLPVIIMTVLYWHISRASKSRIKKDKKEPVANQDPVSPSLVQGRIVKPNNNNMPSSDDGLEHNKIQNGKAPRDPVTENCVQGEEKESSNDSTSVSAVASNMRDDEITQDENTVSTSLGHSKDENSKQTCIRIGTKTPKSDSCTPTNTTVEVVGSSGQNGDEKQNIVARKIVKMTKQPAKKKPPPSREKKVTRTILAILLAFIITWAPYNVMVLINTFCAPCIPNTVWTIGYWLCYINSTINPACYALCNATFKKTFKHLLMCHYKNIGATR
Kind of assay: Alphascreen Surefire phospho-ERK1/2 functional assay, M2. Particulars: for EC50: CHO cells stably expressing human M2, read-out: pEC50 M2 (converted); for Emax: CHO, read-out: % Emax cf. ACh (M2), CHO cells stably expressing human M2, relative to ACh. The procedure: as §1

Setting [5] is: CHO cells stably expressing human M4, phospho-ERK1/2, read-out: pEC50 M4 (converted).
[6] abbreviates: CHO cells stably expressing human M1.
The mark [7] stands for this setting: phospho-ERK1/2, relative to ACh.

T3 sequence (P20309 whole entry): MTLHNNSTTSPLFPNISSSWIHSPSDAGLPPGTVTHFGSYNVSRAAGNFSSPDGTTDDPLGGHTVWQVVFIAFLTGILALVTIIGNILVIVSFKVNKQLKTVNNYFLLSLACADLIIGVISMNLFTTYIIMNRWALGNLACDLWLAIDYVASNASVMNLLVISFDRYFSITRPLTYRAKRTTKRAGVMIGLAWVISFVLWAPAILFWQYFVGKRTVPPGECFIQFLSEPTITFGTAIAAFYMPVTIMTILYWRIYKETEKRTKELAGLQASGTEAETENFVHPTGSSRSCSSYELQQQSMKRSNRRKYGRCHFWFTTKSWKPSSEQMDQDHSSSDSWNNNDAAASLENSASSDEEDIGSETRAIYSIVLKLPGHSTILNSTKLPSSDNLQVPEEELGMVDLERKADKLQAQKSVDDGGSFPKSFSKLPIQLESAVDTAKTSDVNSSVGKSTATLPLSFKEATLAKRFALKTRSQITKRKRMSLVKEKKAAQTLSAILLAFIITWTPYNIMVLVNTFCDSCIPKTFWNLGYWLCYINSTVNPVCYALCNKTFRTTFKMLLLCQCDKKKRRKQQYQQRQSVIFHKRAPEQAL

For orientation: Emax means the size of the effect at its maximum, as opposed to the concentration needed. For the compound `CCOC(=O)N1CCC2(CC(N3CCC(N(CC4(OC)CCC4)C(C)=O)CC3)C2)C1` (single isomer, unassigned) [2-30 Isomer 2], the EC50 in assay [1] (setting [5]) is 79.4 nM; in assay [2] (setting [6]), 100 nM; in assay [3] it was above 20000 nM; in assay [4], 5010 nM. In assay [1] (CHO cells stably expressing human M4, phospho-ERK1/2, relative to ACh), the “% Emax cf. ACh (M4)” value is on record as 96%. For the same compound, the “% Emax cf. ACh (M1)” value in assay [2] (CHO cells stably expressing human M1, relative to ACh) is 104%. Besides, the Emax in assay [3] stood at 26%; in assay [4], 42%.

Take `CCOC(=O)N1CCC2(CC(N3CCC(N(CC(F)(F)F)C4CC4)CC3)C2)C1` (single isomer, unassigned) [2-48 Isomer 2]: the EC50 in assay [1] (setting [5]) is 39.8 nM; in assay [2] (setting [6]) it was 39.8 nM; in assay [3], 7940 nM; in assay [4] it was 12600 nM. Besides, the Emax was determined as 75% in assay [1] (setting [7]), 117% in assay [2] (relative to ACh), 53% in assay [3] and 68% in assay [4].

As for `CCOC(=O)N1CCC2(CC(N3CCC(N(CC(F)F)C(C)=O)CC3)C2)C1` (single isomer, unassigned) [2-24 Isomer 2], the EC50 in assay [1] (setting [5]) is 10 nM; in assay [2] (setting [6]), 398 nM; in assay [3], above 20000 nM; in assay [4], above 20000 nM. Besides, the Emax in assay [1] (setting [7]) is 124%; in assay [2] (relative to ACh), 91%; in assay [3], 17%; in assay [4], 5%.

For the compound `CCOC(=O)N1CCC2(CC(N3CCC(N(C(=O)OC)C(C)C)CC3)C2)C1` (single isomer, unassigned) [2-41 Isomer 2], the EC50 was 15.8 nM in assay [1] (setting [5]), 316 nM in assay [2] (setting [6]), above 20000 nM in assay [3] and above 20000 nM in assay [4]. In addition, the Emax in assay [1] (setting [7]) was 127%; in assay [2] (relative to ACh) it was 109%; in assay [3], 1%; in assay [4], 57%.

Regarding `CCOC(=O)N1CCC2(CC(N3CCC(OC(C)c4ccccc4)CC3)C2)C1` (single isomer, unassigned) [2-66 Isomer 2], the EC50 was 39.8 nM in assay [1] (setting [5]), above 20000 nM in assay [2] (setting [6]), above 20000 nM in assay [3] and above 20000 nM in assay [4]. In addition, the Emax in assay [1] (setting [7]) came to 76%; in assay [2] (relative to ACh) it was 59%; in assay [3], 8%; in assay [4], 17%.

As for `CCOC(=O)N1CCC2(CC(N3CCC(N(Cc4ccccc4)CC(F)(F)F)CC3)C2)C1` (single isomer, unassigned) [2-59 Isomer 2], the EC50 was 79.4 nM in assay [1] (setting [5]), above 20000 nM in assay [2] (setting [6]), above 20000 nM in assay [3] and above 20000 nM in assay [4]. Moreover, the Emax in assay [1] (setting [7]) came out at 52%; in assay [2] (relative to ACh), 9%; in assay [3], 14%; in assay [4], 9%.

Consider `CCOC(=O)N1CCC2(CC(N3CCC(N(C(=O)C(F)(F)F)C4CC4)CC3)C2)C1` (single isomer, unassigned) [2-4 Isomer 2], for which the EC50 in assay [1] (setting [5]) is 31.6 nM; in assay [2] (setting [6]), 200 nM; in assay [3], above 20000 nM; in assay [4], above 20000 nM. Besides, the Emax was 114% in assay [1] (setting [7]), 104% in assay [2] (relative to ACh), 9% in assay [3] and 3% in assay [4].

For the compound `CCOC(=O)N1CCC2(CC(N3CCC(N(Cc4ccccc4)C(C)=O)CC3)C2)C1` (single isomer, unassigned) [2-35 Isomer 2], the EC50 was 126 nM in assay [1] (setting [5]), 39.8 nM in assay [2] (setting [6]), above 20000 nM in assay [3] and above 20000 nM in assay [4]. Further, the Emax in assay [1] (setting [7]) came to 72%; in assay [2] (relative to ACh) it was 85%; in assay [3], 34%; in assay [4], 21%.

`CCOC(=O)N1CCC2(CC(N3CCC(C(C)N(C(C)=O)C4CC4)CC3)C2)C1` (single isomer, unassigned) [2-13 Isomer 2]: the EC50 in assay [1] (setting [5]) was 126 nM; in assay [2] (setting [6]) it was above 20000 nM; in assay [3], above 20000 nM; in assay [4], above 20000 nM. For the same compound, the Emax amounted to 88% in assay [1] (setting [7]), 18% in assay [2] (relative to ACh), 4% in assay [3] and 5% in assay [4].

For the compound `CCOC(=O)N1CCC2(CC(N3CCC(N(C(=O)CC)C4CC4)CC3)C2)C1` (single isomer, unassigned) [2-5 Isomer 2], the EC50 in assay [1] (setting [5]) was 100 nM; in assay [2] (setting [6]), 631 nM; in assay [3], above 20000 nM; in assay [4] it was above 20000 nM. Also, the Emax in assay [1] (setting [7]) was 91%; in assay [2] (relative to ACh) it was 57%; in assay [3], 5%; in assay [4] it was 5%.

As to `CCOC(=O)N1CCC2(CC(N3CCC(N(C(C)=O)C4CCC4)CC3)C2)C1` (single isomer, unassigned) [2-6 Isomer 2], the EC50 is 31.6 nM in assay [1] (setting [5]), 100 nM in assay [2] (setting [6]), above 20000 nM in assay [3] and above 20000 nM in assay [4]. The Emax in assay [1] (setting [7]) was determined as 98%; in assay [2] (relative to ACh), 101%; in assay [3], 14%; in assay [4], 7%.

For `[2H]C([2H])(C)OC(=O)N1CCC2(CC(N3CCC(N(CC)C(C)=O)CC3)C2)C1` (single isomer, unassigned) [2-38 Isomer 2], the EC50 in assay [1] (setting [5]) was 20 nM; in assay [2] (setting [6]), 631 nM; in assay [3] it was above 20000 nM; in assay [4], above 20000 nM. In addition, the Emax in assay [1] (setting [7]) was found to be 115%; in assay [2] (relative to ACh), 76%; in assay [3], 1%; in assay [4], 21%.

Regarding `CCOC(=O)N1CCC2(CC(N3CCC(N(CC)CCF)CC3)C2)C1` (single isomer, unassigned) [2-45 Isomer 2], the Emax was found to be 45% in assay [1] (setting [7]), 30% in assay [2] (relative to ACh), 16% in assay [3] and 9% in assay [4]. The EC50 in assay [1] (pEC50 M4) was 63.1 nM; in assay [2] (setting [6]), 631 nM; in assay [3], above 20000 nM; in assay [4], above 20000 nM.

Regarding `CCOC(=O)N1CC2(CCC(N3CCC(N(CC)C(C)=O)CC3)C2)C1` (single isomer, unassigned) [3-3 Isomer 2], the EC50 in assay [1] (setting [5]) was 3.98 nM; in assay [2] (setting [6]), above 20000 nM; in assay [3], above 20000 nM; in assay [4], above 20000 nM. In addition, the Emax in assay [1] (setting [7]) is 93%; in assay [2] (relative to ACh), 18%; in assay [3] it was 21%; in assay [4], 3%.
